{"source": "patent US12661355B2", "about": "“Compounds and methods for inducing UCP1 expression” (The Regents of the University of California, priority 2020, dated 2026)", "key": {"AKAP1": {"molecular_target": "T1, AKAP1 (Mus musculus, UniProt O08715)", "T1 construct": "from tissue; host or cells: mouse brown adipose tissue (BAT) lysate; also mouse brown adipocyte extracts", "T1 sequence (O08715 30-857)": "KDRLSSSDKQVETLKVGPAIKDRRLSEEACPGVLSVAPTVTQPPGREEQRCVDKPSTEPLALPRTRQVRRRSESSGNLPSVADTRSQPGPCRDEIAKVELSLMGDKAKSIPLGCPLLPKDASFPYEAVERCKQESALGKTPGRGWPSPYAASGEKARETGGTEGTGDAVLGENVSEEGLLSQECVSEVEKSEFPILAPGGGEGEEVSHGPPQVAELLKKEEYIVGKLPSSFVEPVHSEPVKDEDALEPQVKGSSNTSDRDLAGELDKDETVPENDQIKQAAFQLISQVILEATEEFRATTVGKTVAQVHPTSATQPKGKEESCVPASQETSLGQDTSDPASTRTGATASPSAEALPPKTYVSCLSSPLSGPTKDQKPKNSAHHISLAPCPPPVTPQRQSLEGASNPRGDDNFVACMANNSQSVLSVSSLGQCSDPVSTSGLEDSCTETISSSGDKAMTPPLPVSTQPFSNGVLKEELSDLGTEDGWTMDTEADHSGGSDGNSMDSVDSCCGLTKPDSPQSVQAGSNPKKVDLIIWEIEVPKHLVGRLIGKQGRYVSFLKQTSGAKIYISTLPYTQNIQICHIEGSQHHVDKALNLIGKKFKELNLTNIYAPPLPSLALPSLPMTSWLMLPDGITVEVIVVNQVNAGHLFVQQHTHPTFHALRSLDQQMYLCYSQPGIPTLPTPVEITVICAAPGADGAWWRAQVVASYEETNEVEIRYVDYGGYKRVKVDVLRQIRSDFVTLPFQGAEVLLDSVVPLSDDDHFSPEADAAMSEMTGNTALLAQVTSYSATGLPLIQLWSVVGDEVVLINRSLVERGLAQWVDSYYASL", "experiment": "Cellular Thermal Shift Assay (CETSA) in brown adipocytes, AKAP1", "type": "binding", "details": "10 μM for 8 h, heated at 55.8-63.3° C.", "method": "CETSA assays were performed according to known methods. Briefly, differentiated brown adipocytes (one 10 cm dish per treatment) were treated with vehicle or compounds, trypsinized, counted, and re-suspended in approximately 450 μl PBS containing protease inhibitors (volumes were adjusted to have the same number of cells in each treatment). For each sample, 18 μl was distributed into each of 7 PCR tubes. Samples were heated using a thermocycler with a temperature gradient (iCycler, Biorad) for 3 min, followed by 3 min at room temperature, and then snap-frozen in liquid N2. After two freeze-thaw cycles, samples were centrifuged at 20,000 g for 15 min at 4° C., and the supernatants were transferred to another set of tubes. Proteins were analyzed by immunoblotting.\nThe PKA tetramer consists of two catalytic and two regulatory subunits. In the mouse, these are catalytic subunits C-α and C-β, and regulatory subunits RI and RII, each with α and β isoforms (RI-α, RI-β, RII-α, RII-β). […]\nThe potential interaction of Z160 with PKA subunits and AKAPs was assessed first by identifying which PKA subunits and AKAP isoforms are normally present in BAT. […] To perform the CETSA assays, cultured brown adipocytes were incubated with 10 μM Z160 for 8 h, after which the thermal shift was analyzed by Western blot."}, "CYTC and GAPDH": {"tested_on": "CYTC and GAPDH", "experiment": "Western blot of mitochondria-associated proteins, CYTC and GAPDH", "type": "cell-based, mouse", "details": "brown adipocytes, 10 μM", "method": "Cells and tissues were lysed in 10 mM Tris pH 7.5, 10 mM NaCl, 1 mM EDTA and 0.5% Triton X-100, supplemented with complete mini EDTA-free protease (Roche Diagnostics) and phosphatase (Cocktail 2 and 3, Sigma) inhibitors, followed by 10 second sonication. For analysis of mitochondrial proteins, mitochondria were isolated from cells by dual centrifugation, as described. Protein lysates were separated by SDS-PAGE and transferred to a nitrocellulose membrane. Transfer was confirmed by Ponceau staining (P7170, Sigma). After blocking in 5% milk, 0.1% Tween-20 in Tris-buffered saline (TBS), primary antibody was incubated overnight at 4° C. in 5% bovine serum albumin and 0.1% Tween-20 in TBS. Primary antibodies against ACTB (GTX109639, GeneTex), AKAP1 (5203, Cell Signaling), AKAP6 (07-087, Millipore), Cytochrome c (136F3, Cell Signaling), electron transport chain protein complexes (Total OXPHOS rodent WB antibody cocktail ab110413, Abcam), GAPDH (GTX100118, Genetex), active p38 MAPK (V1211, Promega), total p38 MAPK (8690, Cell Signaling), PGC1α (AB3242, Millipore), phospho-(Ser/Thr) PKA substrate (9621, Cell Signaling), PKA C-α (4782, Cell Signaling), PKA RII-β (ab75993, Abcam), and UCP1 (662045, Calbiochem) were used at 1:2000. […] Quantification using representative bands from the Ponceau staining was performed with ImageJ. […]"}}, "data": [{"compound": "COc1ccc(NC(=O)CSc2nc3ccccc3c(=O)[nH]2)c(OC)c1", "note": "[Z160]", "values": [{"measurement": "heat stability of AKAP1", "setting": "AKAP1", "result": "increased the heat stability"}, {"measurement": "levels of CYTC and GAPDH in the mitochondrial fraction", "setting": "CYTC and GAPDH", "result": "not altered"}]}]}
